Our source for the IC50 values is patent US7605154B2, “Substituted Thiazolo [4,5-d]pyrimidines as protein kinase inhibitors” (Janssen Pharmaceutica N.V., priority 2005, dated 2009).

This experiment has as its target T1, EGFR (Homo sapiens, UniProt P00533).
T1 construct: started at nucleotide 2189 (corresponding to amino acid 667) and ended at the termination codon; made in house; host or cells: Sf9 insect cells (baculovirus)
The experiment in a line: EGFR Kinase Assay. The class given is biochemical. Conditions: GST-EGFR, 5 μM ATP. The text has this:
The portion was PCR amplified with primers that added the lambda attB sequences to each end, recombined into an entry vector, then into a, GST destination vector (as described in Gateway Technologies Manual by Invitrogen Corporation, Carlsbad, Calif.).
The destination vector was recombined in the DH10BAC strain of bacteria to produce a bacmid. The bacmid was transfected into Sf 9 cells and the supernatant containing the baculovirus was collected. The GSTEGFR protein was purified using large cultures of Sf 9 cells infected with stock virus. After an appropriate period of time, the cells were collected and lysed. The GSTEGFR was then purified from the lysate on Glutathione-Sepharose columns (as described by Amersham Biosciences, Buckinghamshire, United Kingdom).
The free biotin was separated from the biotinylated polyGluTyr on a gel filtration column.
A mixture of a 10× kinase buffer (500 mM Tris at pH 8.0, 100 mM Magnesium Chloride and 1 mM Sodium Vanadate), DTT (1 mM final from 500 mM stock), ATP (5 μM final from 10 mM stock), biotinylated polyGluTyr (10 μg/μL stock), γ-^33P ATP (10 μCi/μL stock) and water was added to each well (90 μL/well) of a Streptavidin Flashplate (Perkin Elmer, Wellesley, Mass.).
Test compound in 100% DMSO (2 μL) was added to the appropriate wells. Diluted GSTEGFR (1:300 dilution in 50 mM Tris at pH 8.0 and 0.1% bovine serum albumin) (10 μL) was added to the wells to initiate the reactions.
The plates were incubated at 30° C. for 1 hr with shaking. The reacted contents were removed and the plates were sequentially washed three times with a 1×PBS stop buffer (300 μL without Magnesium and Calcium) and 100 mM EDTA. After the final wash, the same stop buffer (200 μL) was added to the wells. The plates were then sealed and read on the TopCount scintillation counter.
Test compounds were assayed in triplicate at 16 concentrations at half-log dilutions starting at 200 uM. A maximum and minimum signal for the assay was determined on each plate. The percent inhibition of a test compound was calculated according to the formula
For a series of test concentrations, the IC50 was derived by graphing percent inhibition against the log of the concentrations tested for a given compound.

The IC50 is the concentration needed to halve the response being measured. A low value points to higher potency.

T1 sequence (P00533 667-1210 limits assumed): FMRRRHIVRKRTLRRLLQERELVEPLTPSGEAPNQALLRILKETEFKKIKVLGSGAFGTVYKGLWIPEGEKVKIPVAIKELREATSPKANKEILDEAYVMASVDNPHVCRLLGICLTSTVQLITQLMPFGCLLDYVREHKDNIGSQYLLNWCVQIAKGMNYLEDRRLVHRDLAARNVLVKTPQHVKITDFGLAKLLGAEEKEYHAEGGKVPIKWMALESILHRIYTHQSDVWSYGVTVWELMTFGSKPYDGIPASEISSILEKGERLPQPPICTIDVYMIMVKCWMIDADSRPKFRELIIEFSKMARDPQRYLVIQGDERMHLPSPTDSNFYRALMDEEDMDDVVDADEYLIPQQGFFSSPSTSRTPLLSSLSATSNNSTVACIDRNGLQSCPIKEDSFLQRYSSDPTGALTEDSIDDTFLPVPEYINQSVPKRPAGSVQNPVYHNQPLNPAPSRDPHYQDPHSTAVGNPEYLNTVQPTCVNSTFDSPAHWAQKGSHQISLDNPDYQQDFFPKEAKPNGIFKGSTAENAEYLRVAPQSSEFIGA

The compound `Cc1cccc(Nc2ncnc3nc(Nc4ccc(S(N)(=O)=O)cc4)sc23)c1` [Cpd 79, 4-[7-(3-methyl-phenylamino)-thiazolo[4,5-d]pyrimidin-2-ylamino]-benzenesulfonamide] gave an IC50 of 14.3 nM.
For `CN(C)C(=O)c1ccc(Nc2nc3ncnc(Nc4ccc(F)c(Cl)c4)c3s2)cc1` [Cpd 27, 4-[7-(3-chloro-4-fluoro-phenylamino)-thiazolo[4,5-d]pyrimidin-2-ylamino]-N,N-dimethyl-benzamide], the midpoint of inhibition, the IC50, lay at 15 nM.
`O=S(=O)(NCCN1CCOCC1)c1ccc(Nc2nc3ncnc(Nc4ccc(F)c(Cl)c4)c3s2)cc1` [Cpd 40, 4-[7-(3-chloro-4-fluoro-phenylamino)-thiazolo[4,5-d]pyrimidin-2-ylamino]-N-(2-morpholin-4-yl-ethyl)-benzenesulfonamide] yielded an IC50 of 9 nM.
Compound `Fc1ccc(Nc2ncnc3nc(Nc4ccc(Cn5ccnc5)cc4)sc23)cc1Cl` [Cpd 23, N^7-(3-chloro-4-fluoro-phenyl)-N^2-(4-imidazol-1-ylmethyl-phenyl)-thiazolo[4,5-d]pyrimidine-2,7-diamine] came in with a 50% inhibitory concentration (IC50) of 6.3 nM.
With `C#Cc1cccc(Nc2ncnc3nc(Nc4ccc(S(=O)(=O)NCCO)cc4)sc23)c1` [Cpd 58, 4-[7-(3-ethynyl-phenylamino)-thiazolo[4,5-d]pyrimidin-2-ylamino]-N-(2-hydroxy-ethyl)-benzenesulfonamide], the IC50 worked out at 6.5 nM.
`Fc1ccc(Nc2ncnc3nc(Nc4ccc(OCCN5CCCC5)cc4)sc23)cc1Cl` [Cpd 15, N^7-(3-chloro-4-fluoro-phenyl)-N^2-[4-(2-pyrrolidin-1-yl-ethoxy)-phenyl]-thiazolo[4,5-d]pyrimidine-2,7-diamine] had an IC50 of 90.1 nM.
In the case of `CC1CC(C)CN(Cc2ccc(Nc3nc4ncnc(Nc5ccc(F)c(Cl)c5)c4s3)cc2)C1` (centres unmarked) [Cpd 24, N^7-(3-chloro-4-fluoro-phenyl)-N^2-[4-(3,5-dimethyl-piperidin-1-ylmethyl)-phenyl]-thiazolo[4,5-d]pyrimidine-2,7-diamine] it was 21.6 nM; in that of `CN(C)Cc1ccc(Nc2nc3ncnc(Nc4ccc(F)c(Cl)c4)c3s2)cc1` [Cpd 10, N^7-(3-chloro-4-fluoro-phenyl)-N^2-(4-dimethylaminomethyl-phenyl)-thiazolo[4,5-d]pyrimidine-2,7-diamine], 12.3 nM.
`CCc1nccn1Cc1ccc(Nc2nc3ncnc(Nc4cccc(Cl)c4)c3s2)cc1` [Cpd 7, N^7-(3-chloro-phenyl)-N^2-[4-(2-ethyl-imidazol-1-ylmethyl)-phenyl]-thiazolo[4,5-d]pyrimidine-2,7-diamine] returned an IC50 of 13 nM.
Consider `CN(Cc1ccc(Nc2nc3ncnc(Nc4ccc(F)c(Cl)c4)c3s2)cc1)C1CCCCC1` [Cpd 21, N^7-(3-chloro-4-fluoro-phenyl)-N^2-{4-[(cyclohexyl-methyl-amino)-methyl]-phenyl}-thiazolo[4,5-d]pyrimidine-2,7-diamine], for which 13.3 nM corresponded to half-maximal inhibition (IC50).
As for `CN(Cc1ccc(Nc2nc3ncnc(Nc4ccc(F)c(Cl)c4)c3s2)cc1)C[C@H]1CCCO1` [Cpd 59, N^7-(3-chloro-4-fluoro-phenyl)-N^2-(4-{[methyl-(2R)-(tetrahydro-furan-2-ylmethyl)-amino]-methyl}-phenyl)-thiazolo[4,5-d]pyrimidine-2,7-diamine], the figure is 11 nM; as for `NS(=O)(=O)c1ccc(Nc2nc3ncnc(Nc4ccccc4)c3s2)cc1` [Cpd 80, 4-[7-(phenylamino)-thiazolo[4,5-d]pyrimidin-2-ylamino]-benzenesulfonamide], 82.5 nM; as for `Clc1cc(Cl)cc(Nc2ncnc3nc(Nc4ccccc4)sc23)c1` [Cpd 91, N^7-(3,5-dichloro-phenyl)-N^2-phenyl-thiazolo[4,5-d]pyrimidine-2,7-diamine], 733 nM.
In the case of `N#Cc1ccc(Nc2nc3ncnc(Nc4cccc(Cl)c4)c3s2)cc1` [Cpd 93, 4-[7-(3-chloro-phenylamino)-thiazolo[4,5-d]pyrimidin-2-ylamino]-benzonitrile], half-maximal inhibition (IC50) required 25.5 nM.
